Like-named read-outs stand apart in the source and are kept apart here.
Key:
SARS-CoV-2 [1] = type: cell-based; details: Vero-E6 cells; dilutions 1/4000 to 1/500; FIGS. 3A and 3B
SARS-CoV-2 [2] = type: cell-based; details: Caco-2 cells; for decrease in viral load versus untreated cells (100%): strongest dilution 1/4000 (25 μg/ml)
HI-viruses = assay: EASY-HIT assay; type: cell-based
SARS-CoV-2 [3] = assay: therapeutic effect against SARS-CoV-2 infection in mouse model; type: in vivo; details: K18-hACE2 transgenic mice; intra-peritoneal 150 mg/kg 30 minutes before and 500 mg/kg three hours after infection; two days post infection
Protocol: Studies of the Therapeutic Effect in the Mouse Model • To investigate the therapeutic effect of compound (VI-A) against SARS-CoV-2 infection in mouse model, K18-hACE2 transgenic mice were used. The viruses used were a German isolate of SARS-CoV-2. The study was conducted as a feasibility study with two groups (test group, control group) based on six mice each, i.e. a total of 12 animals. The two groups of mice were mildly anesthetized by inhalation of 3% isoflurane and intranasally inoculated with 300 KWSIU (FFU) of SARS-CoV-2. Treatment with the compound (VI-A) was performed by intra-peritoneal injection or application. Treatment of the first group began 30 minutes before infection with a compound concentration or dosage of 150 mg/kg. In addition, three hours after infection, the test mice were administered another 500 mg/kg of the compound (dissolved in 100 μl total volume of simply concentrated PBS buffer with pH 7.4). In the second group (positive control or control group), the mice were infected equally but treated with PBS buffer alone without the addition of diphenyl derivatives or triazenes (sham treatment). Two days post infection, the animals were euthanized. The clinical score (“clinical score”), comprising the recording of weight and clinical signs, of the animals was determined. To determine the success of therapy, the viral load in the lungs was determined by qPCR.

[4] = tested on: UWB1,289 ovarian cancer cells; assay: whole transcriptome sequencing (RNA-Seq) of treated ovarian cancer cells; type: cell-based; details: 24 hours; for CDKN1A transcription / DNA repair systems (MMR, BER, NER, ATM/ATR, HR) down-regulated at the transcription level / changes in the transcriptome versus non-treated controls (PCA plot, number of differentially transcribed genes) / expression of CDK family genes / CDK proteins / expression of DNA repair enzymes / transcripts of DNA repair systems: 1,000 μM compound (IV-A3) or 40 μM compound (III-A)
COVID-19 = details: in vivo; cited from earlier work
[5] = dilutions 1/4000 to 1/500, FIGS. 2A and 2B

## CN(C)/N=N/c1ccc(C(=O)c2ccc(OCCC(=O)O)cc2)cc1 [compound (VIII-A)]
SARS-CoV-2 [1]
  decrease in viral load in treated versus untreated cells: greatest decrease in viral load
SARS-CoV-2 [2]; dilution of 1/500 (1000 μg/ml)
  decrease in viral load in treated versus untreated cells: best results in terms of viral load decrease
SARS-CoV-2 [2]; [5]
  decrease in viral load in treated versus untreated cells: Particularly good results
HI-viruses
  inhibitory effect on HI-viruses: first inhibitory effect
SARS-CoV-2 [3]
  viral load in the lungs by qPCR versus positive control group: significantly reduced viral load in the lungs

## CN(C)/N=N/c1ccc(C(=O)c2ccc(OCCC(=O)NCC(=O)O)cc2)cc1 [compound (VI-A)]
SARS-CoV-2 [1]
  decrease in viral load in treated versus untreated cells: significant decrease in viral load
HI-viruses
  inhibitory effect on HI-viruses: first inhibitory effect
SARS-CoV-2 [3]
  histological examination of the lung tissue versus control group: significantly reduced incidence of infection
  viral load in the lungs by qPCR versus positive control group: significantly lower

## CN(C)/N=N/c1ccc(C(=O)c2ccc(O)cc2)cc1 [compound (III-A)]
[4]
  CDKN1A transcription: consistent upregulation
  DNA repair systems (MMR, BER, NER, ATM/ATR, HR) down-regulated at the transcription level: −1.09 log 2FC
  changes in the transcriptome versus non-treated controls (PCA plot, number of differentially transcribed genes): sufficient change in the transcriptome
  expression of CDK family genes / CDK proteins: downregulation
  expression of DNA repair enzymes / transcripts of DNA repair systems: downregulation

## CN(C)/N=N/c1ccc(C(=O)c2ccc(O)cc2)cc1 [compound (IV-B)]
SARS-CoV-2 [1]
  decrease in viral load in treated versus untreated cells: significant decrease in viral load
SARS-CoV-2 [2]; [5]
  decrease in viral load in treated versus untreated cells: Particularly good results
SARS-CoV-2 [2]; FIG. 2A
  decrease in viral load versus untreated cells (100%): 50%
SARS-CoV-2 [2]; FIG. 2B
  decrease in viral load versus untreated cells (100%): 40%
HI-viruses
  inhibitory effect on HI-viruses: first inhibitory effect
SARS-CoV-2 [3]
  viral load in the lungs by qPCR versus positive control group: significantly reduced viral load in the lungs

## CCN(CCO)CCCC(C)Nc1ccnc2cc(Cl)ccc12 (stereo not drawn) [hydroxychloroquine]
COVID-19
  efficacy in COVID-19: no evidence of efficacy

## Tocilizumab: monoclonal antibody approved for the treatment of various forms of rheumatoid arthritis and cytokine release syndrome
COVID-19
  efficacy in COVID-19: ineffective

## CCN(CC)CCCC(C)Nc1ccnc2cc(Cl)ccc12 (stereo not drawn) [Chloroquine]
COVID-19
  efficacy in COVID-19: no evidence of efficacy

## CN(C)N=Nc1ccc(C(=O)c2ccc(OS(=O)(=O)[O-])cc2)cc1.[Na+] [compound (IV-A3)]
[4]
  CDKN1A transcription: strongly induced
  DNA repair systems (MMR, BER, NER, ATM/ATR, HR) down-regulated at the transcription level: −1.09 log 2FC
  changes in the transcriptome versus non-treated controls (PCA plot, number of differentially transcribed genes): more pronounced changes in the transcriptome than compound (III-A)
  expression of CDK family genes / CDK proteins: marked down regulation
  expression of DNA repair enzymes / transcripts of DNA repair systems: extensive downregulation
[4]; 1,000 μM compound (IV-A3), genes differentially expressed in both UWB1,289 cell lines
  induction of CDKN1A: 4.49 log 2FC
[4]; 1,000 μM
  expression of cadherin cell adhesion molecule genes, particularly CDH6: downregulated
[4]; 1,000 μM, both cell lines
  expression of DNA dealkylation pathway proteins (APEX1, TET1, ALKBH2): consistently downregulated

## CN(C)/N=N/c1ccc(C(=O)c2ccc(OS(=O)(=O)O)cc2)cc1 [compound (IV-A)]
HI-viruses
  inhibitory effect on HI-viruses: first inhibitory effect
SARS-CoV-2 [3]
  viral load in the lungs by qPCR versus positive control group: significantly reduced viral load in the lungs
